Measured values taken from patent publication US10597388B2, “Pyridazinone herbicides” (FMC CORPORATION, priority 2014, dated 2020).

Key:
Assay type in all cases: in vivo
[1] = test system: galium (catchweed bedstraw, Galium aparine); assay: Test A greenhouse herbicide test, postemergence; details: for Galium plant response rating: 0 to 100 scale, 0 is no effect, 100 is complete control
Outline: (§1)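 Visual injury score, 0 (no effect) to 100 (complete control), versus untreated controls roughly 10 d after postemergence spray; plants at one- to two-leaf stage, 2 to 10 cm tall, in loam soil and sand, kept in greenhouse.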

[2] = test system: blackgrass (Alopecurus myosuroides); assay: Test A greenhouse herbicide test, postemergence; details: for Plant response rating, Blackgrass: 125 g ai/ha, 0 to 100 scale where 0 is no effect and 100 is complete control; for Blackgrass plant response rating: 500 g ai/ha, 0 to 100 scale, 0 is no effect, 100 is complete control
Outline: as §1

[3] = test system: ryegrass, Italian (Italian ryegrass, Lolium multiflorum); assay: Test A greenhouse herbicide test, pre- and postemergence
Source text: (§2) Seeds of plant species selected from barnyardgrass (Echinochloa crus-galli), kochia (Kochia scoparia), ragweed (common ragweed, Ambrosia elatior), ryegrass, Italian (Italian ryegrass, Lolium multiflorum), crabgrass, large (large crabgrass, Digitaria sanguinalis), foxtail, giant (giant foxtail, Setaria faberii), momingglory (Ipomoea spp.), pigweed (Amaranthus retroflexus), velvetleaf (Abutilon theophrasti), wheat (Triticum aestivum), and corn (Zea mays) were planted into a blend of loam soil and sand and treated preemergence with a directed soil spray using test chemicals formulated in a non-phytotoxic solvent mixture which included a surfactant.
(§3) At the same time, plants selected from these crop and weed species and also blackgrass (Alopecurus myosuroides), and galium (catchweed bedstraw, Galium aparine) were planted in pots containing the same blend of loam soil and sand and treated with postemergence applications of test chemicals formulated in the same manner. Plants ranged in height from 2 to 10 cm and were in the one- to two-leaf stage for the postemergence treatment. Treated plants and untreated controls were maintained in a greenhouse for approximately 10 d, after which time all treated plants were compared to untreated controls and visually evaluated for injury. Plant response ratings, summarized in Table A, are based on a 0 to 100 scale where 0 is no effect and 100 is complete control. A dash (-) response means no test result.

[4] = test system: wheat (Triticum aestivum); assay: as above; details: Postemergence; for Wheat plant response rating: 0 to 100 scale, 0 is no effect, 100 is complete control
Source text: as §2, §3

[5] = test system: pigweed (Amaranthus retroflexus); assay: as above
Source text: as §2, §3

corn (Zea mays) = assay: as above; details: Postemergence; for Corn plant response rating: 0 to 100 scale, 0 is no effect, 100 is complete control
Source text: as §2, §3

[6] = test system: foxtail, giant (giant foxtail, Setaria faberii); assay: as above
Source text: as §2, §3

[7] = test system: barnyardgrass (Echinochloa crus-galli); assay: as above
Source text: as §2, §3

kochia (Kochia scoparia) = assay: as above
Source text: as §2, §3

[8] = test system: ragweed (common ragweed, Ambrosia elatior); assay: as above
Source text: as §2, §3

[9] = test system: sedge, umbrella (small-flower umbrella sedge, Cyperus difformis); assay: Test B flooded paddy test; details: 250 g ai/ha, Flood; visual rating on scale of 0 to 100 where 0 is no effect and 100 is complete control; 13 to 15 d after treatment
Outline: (§4)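 Plants grown to the 2-leaf stage. At treatment, pots were flooded to 3 cm above the soil, compound was applied directly to the paddy water, and that depth was held throughout. After 13 to 15 d in the greenhouse, response was rated visually against controls on a 0 (no effect) to 100 (complete control) scale.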

[10] = test system: ducksalad (Heteranthera limosa); assay: Test B flooded paddy test; details: 250 g ai/ha, Flood; visual rating on scale of 0 to 100 where 0 is no effect and 100 is complete control; 13 to 15 d after treatment
Outline: as §4

[11] = test system: barnyardgrass (Echinochloa crus-galli); assay: Test B flooded paddy test; details: 250 g ai/ha, Flood; visual rating on scale of 0 to 100 where 0 is no effect and 100 is complete control; 13 to 15 d after treatment
Outline: as §4

rice (Oryza sativa) = assay: Test B flooded paddy test; details: 250 g ai/ha, Flood; visual rating on scale of 0 to 100 where 0 is no effect and 100 is complete control; 13 to 15 d after treatment
Outline: as §4

[12] = 125 g ai/ha, 0 to 100 scale where 0 is no effect and 100 is complete control
[13] = Postemergence, 125 g ai/ha, 0 to 100 scale where 0 is no effect and 100 is complete control
[14] = Postemergence, 500 g ai/ha, 0 to 100 scale, 0 is no effect, 100 is complete control
[15] = Preemergence, 125 g ai/ha, 0 to 100 scale where 0 is no effect and 100 is complete control
[16] = Preemergence, 500 g ai/ha, 0 to 100 scale, 0 no effect, 100 complete control
[17] = Preemergence, 500 g ai/ha, 0 to 100 scale where 0 is no effect and 100 is complete control
[18] = 500 g ai/ha, visual rating after approx. 10 d, 0 to 100 scale (0 no effect, 100 complete control)
[19] = Postemergence, 500 g ai/ha, visual rating after approx. 10 d, 0 to 100 scale (0 no effect, 100 complete control)

Structure (SMILES)	Plant response rating, Galium [1, 12]	Plant response rating, Blackgrass [2]	Blackgrass plant response rating [2]	Plant response rating, Ryegrass, Italian [3, 13]	Ryegrass, Italian plant response rating [3, 15]	Plant response rating, Wheat [4, 12]	Plant response rating, Pigweed [5, 13]	Pigweed plant response rating [5, 15]	Plant response rating, Corn (corn (Zea mays); [12])	Plant response rating, Foxtail, Giant [6, 13]	Foxtail, Giant plant response rating [6, 15]	Plant response rating, Barnyardgrass [7, 13]	Barnyardgrass plant response rating [7, 14]	Barnyardgrass plant response rating [7, 15]	Plant response rating, Kochia (kochia (Kochia scoparia); [13])	Kochia plant response rating (kochia (Kochia scoparia); [15])	Plant response rating, Ragweed [8, 13]	Ragweed plant response rating [8, 15]	Plant response rating, Sedge, Umbrella [9]	Plant response rating, Ducksalad [10]	further results
COc1nn(C)c(=O)c(-c2cccc3ccccc23)c1O [Compound 55]	100	70	80	100	100	0	70	70	0	70	80	60	90	90	90	70	90	90	0	0	Galium plant response rating ([1]; 500 g ai/ha): 100; Ryegrass, Italian plant response rating [3, 14]: 100; Plant response rating, Ryegrass, Italian [3, 16]: 100; Wheat plant response rating ([4]; 500 g ai/ha): 0; Pigweed plant response rating [5, 14]: 90; Plant response rating, Pigweed [5, 16]: 100; Corn plant response rating (corn (Zea mays); 500 g ai/ha): 20; Foxtail, Giant plant response rating [6, 14]: 90; Plant response rating, Foxtail, Giant [6, 16]: 100; Plant response rating, Barnyardgrass [7, 16]: 90; Kochia plant response rating (kochia (Kochia scoparia); [14]): 100; Plant response rating, Kochia (kochia (Kochia scoparia); [16]): 100; Ragweed plant response rating [8, 14]: 100; Plant response rating, Ragweed [8, 16]: 100; Plant response rating, Barnyardgrass [11]: 0; Plant response rating, Rice (rice (Oryza sativa)): 0
Cc1sc2ccccc2c1-c1c(OC(=O)OC(C)C)c(Cl)nn(C)c1=O [Compound 94]	80	0	30	30	20	0	30	70	0	30	20	0	40	0	30	30	10	50	0	0	Galium plant response rating ([1]; 500 g ai/ha): 90; Ryegrass, Italian plant response rating [3, 14]: 50; Plant response rating, Ryegrass, Italian [3, 17]: 50; Wheat plant response rating ([4]; 500 g ai/ha): 20; Pigweed plant response rating [5, 14]: 70; Plant response rating, Pigweed [5, 17]: 90; Corn plant response rating (corn (Zea mays); 500 g ai/ha): 0; Foxtail, Giant plant response rating [6, 14]: 50; Plant response rating, Foxtail, Giant [6, 17]: 50; Plant response rating, Barnyardgrass [7, 17]: 40; Kochia plant response rating (kochia (Kochia scoparia); [14]): 60; Plant response rating, Kochia (kochia (Kochia scoparia); [17]): 70; Ragweed plant response rating [8, 14]: 60; Plant response rating, Ragweed [8, 17]: 80; Plant response rating, Barnyardgrass [11]: 0; Plant response rating, Rice (rice (Oryza sativa)): 0
COC(=O)Oc1c(Cl)nn(C)c(=O)c1-c1c(C)sc2ccc(Cl)cc12 [Compound 101]	70	20	40	30	60	0	30	90	0	30	30	0	30	0	20	0	60	40	0	0	Plant response rating, Galium [1, 18]: 90; Plant response rating, Ryegrass, Italian [3, 19]: 50; Plant response rating, Ryegrass, Italian [3, 17]: 100; Plant response rating, Wheat [4, 18]: 20; Plant response rating, Pigweed [5, 19]: 70; Plant response rating, Pigweed [5, 17]: 90; Plant response rating, Corn (corn (Zea mays); [18]): 20; Plant response rating, Foxtail, Giant [6, 19]: 50; Plant response rating, Foxtail, Giant [6, 17]: 60; Plant response rating, Barnyardgrass [7, 17]: 30; Plant response rating, Kochia (kochia (Kochia scoparia); [19]): 30; Plant response rating, Kochia (kochia (Kochia scoparia); [17]): 40; Plant response rating, Ragweed [8, 19]: 80; Plant response rating, Ragweed [8, 17]: 40; Plant response rating, Barnyardgrass [11]: 0; Plant response rating, Rice (rice (Oryza sativa)): 0
